Measurements reported in patent publication US9802899B2, “Heterocyclic compounds as pesticides” (BAYER CROPSCIENCE AG, priority 2012, dated 2017).

Assay: Determination of the log P values by HPLC (formic acid method)
Assay type: physicochemical
Conditions: reversed-phase column (C 18), acidic range (pH 3.4), 55° C.
Method: 1) Description of Method for Determination of the Log P Values (Formic Acid Method)
Eluents for determination in the acidic range (pH 3.4):
Eluent A: acetonitrile+1 ml of formic acid/liter. Eluent B: water+0.9 ml of formic acid/liter.
The lambda max values were determined in the maxima of the chromatographic signals using the UV spectra from 200 nm to 400 nm.

SMILES	log P
O=C(Nc1ccn(-c2cccc(F)c2F)n1)c1ccccc1Cl [Compound I-1-66]	3.02
O=C(Nc1ccn(-c2cccc(F)c2F)n1)c1ccccc1I [Compound I-1-67]	3.10
O=C(Nc1ccn(-c2cccc(F)c2F)n1)c1ncccc1C(F)(F)F [Compound I-1-68]	3.29
O=C(Nc1ccn(-c2cc(F)ccc2F)n1)c1cccnc1C(F)(F)F [Compound I-1-70]	2.60
Cc1ccsc1C(=O)Nc1ccn(-c2cc(F)ccc2F)n1 [Compound I-1-71]	3.24
O=C(Nc1ccn(-c2c(F)cccc2F)n1)c1ccccc1OC(F)(F)F [Compound I-1-79]	2.96
O=C(Nc1ccn(-c2c(F)cccc2F)n1)c1ccccc1Cl [Compound I-1-81]	2.55
O=C(Nc1ccn(-c2c(F)cccc2F)n1)c1c(F)cccc1F [Compound I-1-84]	2.42
O=C(Nc1ccn(-c2c(F)cccc2F)n1)c1c(F)cccc1Cl [Compound I-1-85]	2.60
O=C(Nc1ccn(-c2c(F)cccc2F)n1)c1ccccc1-n1cncn1 [Compound I-1-89]	1.66
O=C(Nc1ccn(-c2c(F)cccc2F)n1)c1cccnc1C(F)(F)F [Compound I-1-93]	2.68
O=C(Nc1ccn(-c2c(F)cccc2F)n1)c1cnccc1C(F)(F)F [Compound I-1-94]	2.16
O=C(Nc1ccn(-c2c(F)cccc2F)n1)c1ccncc1C(F)(F)F [Compound I-1-97]	2.16
CCc1nnccc1C(=O)Nc1ccn(-c2c(F)cccc2F)n1 [Compound I-1-98]	1.73
O=C(Nc1ccn(-c2c(F)cccc2F)n1)c1nccnc1Cl [Compound I-1-100]	2.15
CC1=C(C(=O)Nc2ccn(-c3c(F)cccc3F)n2)SCCO1 [Compound I-1-101]	2.41
O=C(Nc1ccn(-c2c(F)cccc2F)n1)C1=C(C(F)(F)F)OCCS1 [Compound I-1-102]	2.56
Cc1ccsc1C(=O)Nc1ccn(-c2c(F)cccc2F)n1 [Compound I-1-103]	2.64
O=C(Nc1ccn(-c2c(F)cccc2F)n1)c1sccc1I [Compound I-1-104]	2.96
Cc1noc(C(F)F)c1C(=O)Nc1ccn(-c2c(F)cccc2F)n1 [Compound I-1-106]	2.53
Cn1cc(C(=O)Nc2ccn(-c3c(F)cccc3F)n2)c(I)n1 [Compound I-1-108]	2.03
Cc1nn(C)c(F)c1C(=O)Nc1ccn(-c2c(F)cccc2F)n1 [Compound I-1-110]	1.98
O=C(Nc1ccn(-c2c(F)cccc2F)n1)c1ccnn1C(F)F [Compound I-1-111]	2.40

Second part, the compound after the results:

log P	SMILES
2.60	Cc1ccccc1C(=O)Nc1ccn(-c2c(F)cccc2F)n1 [Compound I-1-73]
2.73	O=C(Nc1ccn(-c2c(F)cccc2F)n1)c1ccccc1C(F)F [Compound I-1-74]
2.92	CCc1ccccc1C(=O)Nc1ccn(-c2c(F)cccc2F)n1 [Compound I-1-78]
2.66	O=C(Nc1ccn(-c2c(F)cccc2F)n1)c1ccccc1O [Compound I-1-87]
3.15	O=C(Nc1ccn(-c2c(F)cccc2F)n1)c1ccccc1SC(F)(F)F [Compound I-1-88]
2.86	Cc1cccnc1C(=O)Nc1ccn(-c2c(F)cccc2F)n1 [Compound I-1-90]
2.40	O=C(Nc1ccn(-c2c(F)cccc2F)n1)c1ncccc1Cl [Compound I-1-92]
1.96	O=C(Nc1ccn(-c2c(F)cccc2F)n1)c1cccnc1Cl [Compound I-1-95]
2.76	O=C(Nc1ccn(-c2c(F)cccc2F)n1)c1ccsc1I [Compound I-1-105]
1.71	Cc1nn(C)cc1C(=O)Nc1ccn(-c2c(F)cccc2F)n1 [Compound I-1-107]
1.77	Cc1nn(C)c(C)c1C(=O)Nc1ccn(-c2c(F)cccc2F)n1 [Compound I-1-109]
2.53	Cn1nc(C(F)(F)F)c(C(=O)Nc2ccn(-c3c(F)cccc3F)n2)c1F [Compound I-1-112]
